Test results published in ChEMBL document CHEMBL5506027, “Discovery of a Novel and Potent Cyclin-Dependent Kinase 8/19 (CDK8/19) Inhibitor for the Treatment of Cancer” (J Med Chem, 2024).

How the values were obtained:
[1] = Tmax in mouse at 5 mg/kg, po measured upto 24 hrs by LC-MS/MS analysis; type: ADME, organism-based; details: in vivo
[2] = Selectivity ratio of IC50 for CDK2/CyclinE1 (unknown origin) to IC50 for CDK8/Cyclin C (unknown origin)
[3] = AUC(0 to 24 hrs) in dog at 3 mg/kg, po measured upto 24 hrs by LC-MS/MS analysis; type: ADME, organism-based, Canis lupus familiaris; details: in vivo
[4] = Selectivity ratio of IC50 for CDK5/p35NCK (unknown origin) to IC50 for CDK8/Cyclin C (unknown origin)
[5] = Dose normalized AUC in mouse at 5 mg/kg, po measured upto 24 hrs by LC-MS/MS analysis; type: ADME, organism-based; details: in vivo
[6] = Cmax in mouse at 5 mg/kg, po measured upto 24 hrs by LC-MS/MS analysis; type: ADME, organism-based; details: in vivo
[7] = Dose normalized AUC in rat at 5 mg/kg, po measured upto 24 hrs by LC-MS/MS analysis; type: ADME, organism-based; details: in vivo
[8] = Selectivity ratio of IC50 for CDK1/CyclinA2 (unknown origin) to IC50 for CDK8/Cyclin C (unknown origin)
[9] = Selectivity ratio of IC50 for CDK7/CyclinH/MAT1 (unknown origin) to IC50 for CDK8/Cyclin C (unknown origin)
[10] = AUC(0 to 24 hrs) in rat at 5 mg/kg, po measured upto 24 hrs by LC-MS/MS analysis; type: ADME, organism-based; details: in vivo
[11] = Tmax in rat at 5 mg/kg, po measured upto 24 hrs by LC-MS/MS analysis; type: ADME, organism-based; details: in vivo
[12] = Oral bioavailability in dog at 3 mg/kg measured upto 24 hrs by LC-MS/MS analysis; type: ADME, organism-based, Canis lupus familiaris; details: in vivo
[13] = Cmax in dog at 3 mg/kg, po measured upto 24 hrs by LC-MS/MS analysis; type: ADME, organism-based, Canis lupus familiaris; details: in vivo
[14] = Oral bioavailability in mouse at 5 mg/kg measured upto 24 hrs by LC-MS/MS analysis; type: ADME, organism-based; details: in vivo
[15] = Tmax in dog at 3 mg/kg, po measured upto 24 hrs by LC-MS/MS analysis; type: ADME, organism-based, Canis lupus familiaris; details: in vivo
[16] = Dose normalized AUC in rat at 10 mg/kg, po measured upto 24 hrs by LC-MS/MS analysis; type: ADME, organism-based; details: in vivo
[17] = Oral bioavailability in dog at 5 mg/kg measured upto 24 hrs by LC-MS/MS analysis; type: ADME, organism-based, Canis lupus familiaris; details: in vivo
[18] = AUC(0 to 24 hrs) in mouse at 30 mg/kg, po measured upto 24 hrs by LC-MS/MS analysis; type: ADME, organism-based; details: in vivo
[19] = Dose normalized AUC in dog at 5 mg/kg, po measured upto 24 hrs by LC-MS/MS analysis; type: ADME, organism-based, Canis lupus familiaris; details: in vivo
[20] = AUC(0 to 24 hrs) in dog at 5 mg/kg, po measured upto 24 hrs by LC-MS/MS analysis; type: ADME, organism-based, Canis lupus familiaris; details: in vivo
[21] = Clearance in monkey at 1 mg/kg, iv measured upto 24 hrs by LC-MS/MS anlaysis; type: ADME, organism-based, Macaca mulatta; details: rhesus monkey, in vivo
[22] = biological target: Signal transducer and activator of transcription 1-alpha/beta (Homo sapiens) (UniProt P42224); assay: Induction of STAT1 (unknown origin) phosphorylation at Ser727 residues by Western blotting analysis; details: filed as activator, dose 0.0032-10 µM
MDA-MB-468 = assay: Synergistic antitumor activity against human MDA-MB-468 cells xenografted in BALB/c nude mouse assessed as tumor growth inhibition at 3 mg/kg, ip qd and measured twice a week for 3 weeks in presence of carboplatin; type: functional; details: MDA-MB-468, 504 h, read-out: TGI
[23] = AUC(0 to 24 hrs) in monkey at 5 mg/kg, po measured upto 24 hrs by LC-MS/MS analysis; type: ADME, organism-based, Macaca mulatta; details: rhesus monkey, in vivo
MV4-11 [24] = assay: Antitumor activity against human MV4-11 cells xenografted in po dosed BALB/c nude mouse assessed as tumor growth inhibition measured twice a week for 3 weeks; type: functional, organism-based; details: dose 3-10 mg/kg
Z-138 = assay: Antitumor activity against human Z138 cells xenografted in po dosed CB17 SCID mouse assessed as tumor growth inhibition administered once daily for 21 days; type: functional, organism-based; details: dose 2.5-5 mg/kg, time 21.0 day
[25] = Cmax in mouse at 30 mg/kg, po measured upto 24 hrs by LC-MS/MS analysis; type: ADME, organism-based; details: in vivo
[26] = Oral bioavailability in mouse at 30 mg/kg measured upto 24 hrs by LC-MS/MS analysis; type: ADME, organism-based; details: in vivo
[27] = Toxicity in BALB/c nude mouse xenografted with human MV4-11 cells assessed as change in body weight at 3 mg/kg, ip qd and measured twice a week for 3 weeks in presence of carboplatin; type: organism-based; details: in vivo, 504 h
MV4-11 [28] = assay: Antitumor activity against human MV4-11 cells xenografted in BALB/c nude mouse assessed as tumor growth inhibition at 3 mg/kg, po qd and measured twice a week for 3 weeks; type: functional; details: MV4-11, 504 h, read-out: TGI
[29] = biological target: CDK3/Cyclin E (Homo sapiens) (UniProt P24864+Q00526); assay: Inhibition of CDK3/cyclinE1 (unknown origin) at 1 uM by luminescence based assay relative to control; type: protein-complex assay
[30] = biological target: CDK9/cyclin T1 (Homo sapiens) (UniProt O60563+P50750); assay: Inhibition of CDK9/cyclinT1 (unknown origin) at 1 uM by luminescence based assay relative to control; type: protein-complex assay
[31] = biological target: Cyclin-dependent kinase 5/CDK5 activator 1 (Homo sapiens) (UniProt Q00535+Q15078); assay: Inhibition of CDK5/p35NCK (unknown origin) at 1 uM by luminescence based assay relative to control; type: protein-complex assay
[32] = AUC(0 to 24 hrs) in rat at 10 mg/kg, po measured upto 24 hrs by LC-MS/MS analysis; type: ADME, organism-based; details: in vivo
[33] = biological target: CDK12/Cyclin K (Homo sapiens) (UniProt O75909+Q9NYV4); assay: Inhibition of CDK12/cyclinK (unknown origin) at 1 uM by luminescence based assay relative to control; type: protein-complex assay
Chain of CDK12/Cyclin K (Homo sapiens) (O75909 whole entry, looked up): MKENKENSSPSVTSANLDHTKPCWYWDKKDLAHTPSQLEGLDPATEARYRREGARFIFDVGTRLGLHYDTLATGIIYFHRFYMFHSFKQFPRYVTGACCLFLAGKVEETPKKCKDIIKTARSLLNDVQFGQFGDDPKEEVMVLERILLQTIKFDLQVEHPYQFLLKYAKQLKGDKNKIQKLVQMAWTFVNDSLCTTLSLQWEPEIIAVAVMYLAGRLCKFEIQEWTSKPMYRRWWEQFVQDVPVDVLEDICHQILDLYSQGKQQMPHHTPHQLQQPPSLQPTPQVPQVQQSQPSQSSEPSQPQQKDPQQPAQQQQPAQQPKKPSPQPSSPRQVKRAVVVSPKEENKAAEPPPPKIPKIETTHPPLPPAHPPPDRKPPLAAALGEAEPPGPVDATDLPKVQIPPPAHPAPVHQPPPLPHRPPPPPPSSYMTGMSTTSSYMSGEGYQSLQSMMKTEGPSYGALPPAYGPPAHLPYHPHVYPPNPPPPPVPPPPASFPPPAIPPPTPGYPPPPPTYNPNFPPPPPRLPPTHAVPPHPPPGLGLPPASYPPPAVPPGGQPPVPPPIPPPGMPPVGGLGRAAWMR
Chain of CDK12/Cyclin K (Homo sapiens) (Q9NYV4 whole entry, looked up): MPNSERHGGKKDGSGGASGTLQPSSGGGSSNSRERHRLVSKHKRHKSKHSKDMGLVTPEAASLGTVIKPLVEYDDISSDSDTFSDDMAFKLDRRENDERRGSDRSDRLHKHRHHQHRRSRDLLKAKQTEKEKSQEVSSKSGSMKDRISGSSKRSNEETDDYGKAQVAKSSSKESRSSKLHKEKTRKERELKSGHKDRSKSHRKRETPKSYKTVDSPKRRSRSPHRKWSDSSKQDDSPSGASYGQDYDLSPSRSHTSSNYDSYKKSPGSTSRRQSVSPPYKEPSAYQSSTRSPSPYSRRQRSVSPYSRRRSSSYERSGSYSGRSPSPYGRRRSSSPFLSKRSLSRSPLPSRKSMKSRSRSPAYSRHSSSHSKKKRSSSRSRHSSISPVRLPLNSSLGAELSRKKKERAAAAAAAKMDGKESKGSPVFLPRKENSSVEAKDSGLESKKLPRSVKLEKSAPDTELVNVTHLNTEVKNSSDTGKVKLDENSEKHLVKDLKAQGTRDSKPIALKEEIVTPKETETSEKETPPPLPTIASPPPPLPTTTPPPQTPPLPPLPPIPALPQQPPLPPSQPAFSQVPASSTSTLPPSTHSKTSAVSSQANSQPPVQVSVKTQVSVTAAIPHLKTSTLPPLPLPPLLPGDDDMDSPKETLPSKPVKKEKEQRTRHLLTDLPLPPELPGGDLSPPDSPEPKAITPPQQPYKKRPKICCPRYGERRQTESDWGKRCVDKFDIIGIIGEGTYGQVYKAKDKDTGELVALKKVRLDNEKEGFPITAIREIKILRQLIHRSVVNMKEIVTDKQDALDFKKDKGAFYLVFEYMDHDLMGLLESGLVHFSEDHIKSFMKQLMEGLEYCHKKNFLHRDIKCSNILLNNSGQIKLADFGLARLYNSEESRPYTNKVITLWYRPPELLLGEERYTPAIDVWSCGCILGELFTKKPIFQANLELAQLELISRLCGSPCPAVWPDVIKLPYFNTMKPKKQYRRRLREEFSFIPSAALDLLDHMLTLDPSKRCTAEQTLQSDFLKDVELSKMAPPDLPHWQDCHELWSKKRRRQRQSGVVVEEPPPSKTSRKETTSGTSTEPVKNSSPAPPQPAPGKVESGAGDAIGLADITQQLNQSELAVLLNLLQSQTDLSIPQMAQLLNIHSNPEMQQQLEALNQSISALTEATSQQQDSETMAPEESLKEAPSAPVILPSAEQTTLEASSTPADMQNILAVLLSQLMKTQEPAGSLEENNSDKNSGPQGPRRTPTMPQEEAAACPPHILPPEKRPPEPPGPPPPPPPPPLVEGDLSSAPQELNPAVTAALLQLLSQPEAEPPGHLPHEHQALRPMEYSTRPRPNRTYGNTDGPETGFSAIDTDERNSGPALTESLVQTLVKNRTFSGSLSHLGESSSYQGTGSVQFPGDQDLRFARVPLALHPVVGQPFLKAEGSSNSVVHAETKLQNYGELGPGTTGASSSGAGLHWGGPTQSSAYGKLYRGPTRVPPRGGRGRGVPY

Chain of Cyclin-dependent kinase 5/CDK5 activator 1 (Homo sapiens) (Q00535 whole entry): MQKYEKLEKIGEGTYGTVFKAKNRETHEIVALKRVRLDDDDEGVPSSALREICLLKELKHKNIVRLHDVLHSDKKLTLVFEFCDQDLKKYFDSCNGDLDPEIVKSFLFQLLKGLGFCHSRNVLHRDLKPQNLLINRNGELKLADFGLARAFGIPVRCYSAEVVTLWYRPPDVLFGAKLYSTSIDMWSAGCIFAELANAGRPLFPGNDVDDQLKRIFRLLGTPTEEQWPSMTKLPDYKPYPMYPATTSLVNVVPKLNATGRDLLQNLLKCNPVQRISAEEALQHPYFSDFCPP
Chain of Cyclin-dependent kinase 5/CDK5 activator 1 (Homo sapiens) (Q15078 99-307 partner limits assumed): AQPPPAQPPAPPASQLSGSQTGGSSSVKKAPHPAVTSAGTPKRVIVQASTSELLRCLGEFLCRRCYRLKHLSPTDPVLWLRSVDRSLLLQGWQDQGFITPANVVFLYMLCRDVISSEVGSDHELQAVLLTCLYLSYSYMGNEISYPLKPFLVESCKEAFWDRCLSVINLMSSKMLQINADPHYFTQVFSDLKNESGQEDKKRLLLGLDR
Chain of Signal transducer and activator of transcription 1-alpha/beta (Homo sapiens) (P42224 whole entry): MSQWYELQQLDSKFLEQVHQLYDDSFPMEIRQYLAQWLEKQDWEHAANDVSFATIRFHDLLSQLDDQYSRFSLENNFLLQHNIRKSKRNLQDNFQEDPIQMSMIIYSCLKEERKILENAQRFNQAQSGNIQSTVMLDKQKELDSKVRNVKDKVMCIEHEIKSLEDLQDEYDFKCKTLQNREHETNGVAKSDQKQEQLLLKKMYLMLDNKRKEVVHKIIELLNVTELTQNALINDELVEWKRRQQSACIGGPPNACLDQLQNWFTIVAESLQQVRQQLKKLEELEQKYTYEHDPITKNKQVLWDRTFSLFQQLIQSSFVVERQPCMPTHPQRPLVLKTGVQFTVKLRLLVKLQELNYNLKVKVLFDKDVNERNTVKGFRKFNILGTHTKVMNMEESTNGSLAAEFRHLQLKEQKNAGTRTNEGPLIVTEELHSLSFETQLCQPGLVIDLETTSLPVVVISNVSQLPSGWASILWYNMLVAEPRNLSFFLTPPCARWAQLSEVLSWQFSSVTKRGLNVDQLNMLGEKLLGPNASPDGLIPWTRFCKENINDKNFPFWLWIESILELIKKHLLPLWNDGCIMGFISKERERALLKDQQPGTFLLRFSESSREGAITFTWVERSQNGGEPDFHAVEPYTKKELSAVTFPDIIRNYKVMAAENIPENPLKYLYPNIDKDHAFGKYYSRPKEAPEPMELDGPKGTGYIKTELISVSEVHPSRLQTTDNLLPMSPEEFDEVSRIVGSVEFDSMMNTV
Chain of CDK3/Cyclin E (Homo sapiens) (P24864 whole entry, looked up): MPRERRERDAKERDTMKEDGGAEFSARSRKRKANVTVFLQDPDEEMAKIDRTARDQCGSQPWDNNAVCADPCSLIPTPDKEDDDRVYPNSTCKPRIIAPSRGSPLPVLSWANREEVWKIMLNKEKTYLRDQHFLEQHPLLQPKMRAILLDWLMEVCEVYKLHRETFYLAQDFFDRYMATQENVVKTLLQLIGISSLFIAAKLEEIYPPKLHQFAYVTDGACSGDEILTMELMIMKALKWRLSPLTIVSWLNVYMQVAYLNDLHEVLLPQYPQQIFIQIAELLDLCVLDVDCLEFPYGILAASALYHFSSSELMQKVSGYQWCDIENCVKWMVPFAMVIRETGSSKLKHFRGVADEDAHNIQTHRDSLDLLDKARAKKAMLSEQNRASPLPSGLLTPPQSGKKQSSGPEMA
Chain of CDK3/Cyclin E (Homo sapiens) (Q00526 whole entry, looked up): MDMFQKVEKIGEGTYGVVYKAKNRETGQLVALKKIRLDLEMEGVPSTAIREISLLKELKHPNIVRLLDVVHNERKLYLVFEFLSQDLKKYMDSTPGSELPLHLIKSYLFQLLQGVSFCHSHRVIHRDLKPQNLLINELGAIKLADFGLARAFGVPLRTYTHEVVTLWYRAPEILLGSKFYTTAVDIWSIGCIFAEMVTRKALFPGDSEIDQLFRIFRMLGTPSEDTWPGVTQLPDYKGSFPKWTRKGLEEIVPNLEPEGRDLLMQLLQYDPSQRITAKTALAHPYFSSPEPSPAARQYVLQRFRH

Cc1c(Br)c(Br)c2c3c1nc(N1CCNCC1)n3CCC2 [SEL-120 FREE BASE]
Tmax [1]: 1.3 h | Ratio IC50 [2]: 0.1 | AUC(0-t) at 24 h [3]: 2060 ng·h/mL | Ratio IC50 [4]: 0.1 | AUC/dose [5]: 270 ng·h/mL | Cmax [6]: 143 ng/mL | AUC/dose [7]: 11.2 ng·h/mL | Ratio IC50 [8]: 1.2 | Ratio IC50 [9]: 2.9 | AUC(0-t) at 24 h [10]: 56 ng·h/mL | Tmax [11]: 1.67 h | bioavailability [12]: 136% | Cmax [13]: 215 ng/mL | F [14]: 155% | Tmax [15]: 4.18 h

FC(F)c1c(Br)c(Br)cc2c1nc(N1CCNCC1)n2C1CCOCC1
AUC/dose [16]: 190 ng·h/mL | bioavailability [17]: 85% | AUC(0-t) at 24 h [18]: 23900 ng·h/mL | AUC/dose [19]: 1117 ng·h/mL | AUC(0-t) at 24 h [20]: 5590 ng·h/mL | clearance [21]: 13 mL/min/kg | Activity [22]: Dose-Dependent Effect | inhibition in vivo at 3 mg/kg (MDA-MB-468): 66% | AUC(0-t) at 24 h [23]: 12500 ng·h/mL | Activity (MV4-11 [24]): Dose-Dependent Effect | Activity (Z-138): Dose-Dependent Effect | Cmax [25]: 2280 ng/mL | bioavailability [26]: 67% | Activity [27]: Non-Toxic | inhibition in vivo at 3 mg/kg (MV4-11 [28]): 29% | inhibition [29]: 45.4% | inhibition [30]: 59.3% | inhibition [31]: 75.3% | AUC(0-t) at 24 h [32]: 1900 ng·h/mL | inhibition [33]: 69.6%
